The values that follow come from US10206394B2, “Herbicidal compounds” (Syngenta Participations AG, priority 2014, dated 2019).

Read-outs that look alike come from different tables or passages of the source.

Experiment in all cases: Glasshouse assay for herbicidal activity (pre- and post-emergence), percentage phytotoxicity
What all share (format): in vivo

Test [1] concerns Avena fatua (AVEFA). As to conditions: Avena fatua. An outline of the steps:
(§1)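 Herbicide was applied to potted plants sown in standard soil, one day after sowing for PRE and after about 12 days for POST. Visual percentage damage ratings followed at 15 DAA (POST) and 20 DAA (PRE).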

Test [2] concerns Alopecurus myosuroides (ALOMY). As to conditions: Alopecurus myosuroides. An outline of the steps:
as §1

The test system of test [3] is Echinochloa crus-galli (ECHCG). The following applies: Echinochloa crus-galli. In outline:
as §1

Test [4] has as its system Lolium perenne (LOLPE). As to conditions: Lolium perenne. An outline of the steps:
as §1

Where [5] appears, read: post-emergence, 360 h, POST-emergence, rate 250 g/ha, visual score 15 DAA (100%=total damage, 0%=no damage), read-out: Post-emergence herbicidal activity (percentage phytotoxicity) AVEFA POST.
[6] abbreviates: pre-emergence, 480 h, PRE-emergence, rate 250 g/ha, visual score 20 DAA (100%=total damage, 0%=no damage), read-out: Pre-emergence herbicidal activity (percentage phytotoxicity) AVEFA PRE.
The mark [7] stands for this setting: post-emergence, 360 h, POST-emergence, rate 250 g/ha, visual score 15 DAA (100%=total damage, 0%=no damage), read-out: Post-emergence herbicidal activity (percentage phytotoxicity) ALOMY POST.
The mark [8] stands for this setting: pre-emergence, 480 h, PRE-emergence, rate 250 g/ha, visual score 20 DAA (100%=total damage, 0%=no damage), read-out: Pre-emergence herbicidal activity (percentage phytotoxicity) ALOMY PRE.
The mark [9] stands for this setting: post-emergence, 360 h, POST-emergence, rate 250 g/ha, visual score 15 DAA (100%=total damage, 0%=no damage), read-out: Post-emergence herbicidal activity (percentage phytotoxicity) ECHCG POST.
Setting [10] is: pre-emergence, 480 h, PRE-emergence, rate 250 g/ha, visual score 20 DAA (100%=total damage, 0%=no damage), read-out: Pre-emergence herbicidal activity (percentage phytotoxicity) ECHCG PRE.
Setting [11] is: post-emergence, 360 h, POST-emergence, rate 250 g/ha, visual score 15 DAA (100%=total damage, 0%=no damage), read-out: Post-emergence herbicidal activity (percentage phytotoxicity) LOLPE POST.
Where [12] appears, read: pre-emergence, 480 h, PRE-emergence, rate 250 g/ha, visual score 20 DAA (100%=total damage, 0%=no damage), read-out: Pre-emergence herbicidal activity (percentage phytotoxicity) LOLPE PRE.
The mark [13] stands for this setting: post-emergence, 360 h, 250 g/ha, post-emergence, 15 DAA, visual assessment (100%=total damage, 0%=no damage), read-out: Post-emergence herbicidal activity (percentage phytotoxicity) AVEFA POST.
Where [14] appears, read: pre-emergence, 480 h, 250 g/ha, pre-emergence, 20 DAA, visual assessment (100%=total damage, 0%=no damage), read-out: Pre-emergence herbicidal activity (percentage phytotoxicity) AVEFA PRE.
Setting [15] is: post-emergence, 360 h, 250 g/ha, post-emergence, 15 DAA, visual assessment (100%=total damage, 0%=no damage), read-out: Post-emergence herbicidal activity (percentage phytotoxicity) ALOMY POST.
Setting [16] is: pre-emergence, 480 h, 250 g/ha, pre-emergence, 20 DAA, visual assessment (100%=total damage, 0%=no damage), read-out: Pre-emergence herbicidal activity (percentage phytotoxicity) ALOMY PRE.
Where [17] appears, read: post-emergence, 360 h, 250 g/ha, post-emergence, 15 DAA, visual assessment (100%=total damage, 0%=no damage), read-out: Post-emergence herbicidal activity (percentage phytotoxicity) ECHCG POST.
The mark [18] stands for this setting: pre-emergence, 480 h, 250 g/ha, pre-emergence, 20 DAA, visual assessment (100%=total damage, 0%=no damage), read-out: Pre-emergence herbicidal activity (percentage phytotoxicity) ECHCG PRE.
Where [19] appears, read: post-emergence, 360 h, 250 g/ha, post-emergence, 15 DAA, visual assessment (100%=total damage, 0%=no damage), read-out: Post-emergence herbicidal activity (percentage phytotoxicity) LOLPE POST.
Where [20] appears, read: pre-emergence, 480 h, 250 g/ha, pre-emergence, 20 DAA, visual assessment (100%=total damage, 0%=no damage), read-out: Pre-emergence herbicidal activity (percentage phytotoxicity) LOLPE PRE.

For the compound `CCNC(=O)CC1CC(=O)C(c2c(C)cc(-c3ncc(C#N)cn3)cc2C)C1=O` (stereo not drawn) [Compound B286], the pest or weed control at 250 g/ha in test [1] (setting [5]) came out at 100%; in test [1] (setting [6]) it was 90%; in test [2] (setting [7]), 100%; in test [2] (setting [8]), 100%; in test [3] (setting [9]), 100%; in test [3] (setting [10]), 100%. For the same compound, the pest or weed control at 250 g/ha in test [4] (setting [11]) is 100%; in test [4] (setting [12]), 90%.
As for `CC#Cc1cc(C)c(C2C(=O)CC(CC(=O)N3CCOCC3)C2=O)c(C)c1` (stereo not drawn) [Compound B155], the pest or weed control at 250 g/ha amounted to 100% in test [1] (setting [13]); 100% in test [1] (setting [14]); 100% in test [2] (setting [15]); 90% in test [2] (setting [16]); 100% in test [3] (setting [17]); 100% in test [3] (setting [18]). The pest or weed control at 250 g/ha in test [4] (setting [19]) and in test [4] (setting [20]) was 100% throughout.
Regarding `Cc1cc(C)c(C2C(=O)CC(CC(=O)NC(C)C3CC3)C2=O)c(C)c1` (stereo not drawn) [Compound B31], the pest or weed control at 250 g/ha was found to be 80% in test [1] (setting [13]); 70% in test [1] (setting [14]); 80% in test [2] (setting [15]); 100% in test [2] (setting [16]); 80% in test [3] (setting [17]); 90% in test [3] (setting [18]). Besides, the pest or weed control at 250 g/ha was determined as 80% in test [4] (setting [19]) and 90% in test [4] (setting [20]).
On to `COCCNC(=O)CC1CC(=O)C(c2c(C)cc(-n3cc(Cl)cn3)cc2C)C1=O` (stereo not drawn) [Compound A77], for which the pest or weed control at 250 g/ha in test [1] (post-emergence, 360 h, Rate 250 g/ha, post-emergence, assessed visually 15 DAA, 100%=total damage, 0%=no damage, read-out: Post-emergence herbicidal activity (percentage phytotoxicity) AVEFA POST) was found to be 90%; in test [1] (pre-emergence, 480 h, Rate 250 g/ha, pre-emergence, assessed visually 20 DAA, 100%=total damage, 0%=no damage, read-out: Pre-emergence herbicidal activity (percentage phytotoxicity) AVEFA PRE), 80%; in test [2] (post-emergence, 360 h, Rate 250 g/ha, post-emergence, assessed visually 15 DAA, 100%=total damage, 0%=no damage, read-out: Post-emergence herbicidal activity (percentage phytotoxicity) ALOMY POST), 90%; in test [2] (pre-emergence, 480 h, Rate 250 g/ha, pre-emergence, assessed visually 20 DAA, 100%=total damage, 0%=no damage, read-out: Pre-emergence herbicidal activity (percentage phytotoxicity) ALOMY PRE), 80%; in test [3] (post-emergence, 360 h, Rate 250 g/ha, post-emergence, assessed visually 15 DAA, 100%=total damage, 0%=no damage, read-out: Post-emergence herbicidal activity (percentage phytotoxicity) ECHCG POST) it was 100%; in test [3] (pre-emergence, 480 h, Rate 250 g/ha, pre-emergence, assessed visually 20 DAA, 100%=total damage, 0%=no damage, read-out: Pre-emergence herbicidal activity (percentage phytotoxicity) ECHCG PRE) it was 100%. Also, the pest or weed control at 250 g/ha came out at 80% in test [4] (post-emergence, 360 h, Rate 250 g/ha, post-emergence, assessed visually 15 DAA, 100%=total damage, 0%=no damage, read-out: Post-emergence herbicidal activity (percentage phytotoxicity) LOLPE POST) and 80% in test [4] (pre-emergence, 480 h, Rate 250 g/ha, pre-emergence, assessed visually 20 DAA, 100%=total damage, 0%=no damage, read-out: Pre-emergence herbicidal activity (percentage phytotoxicity) LOLPE PRE).
Take `Cc1cc(-c2ncc(F)cn2)cc(C)c1C1C(=O)CC(CC(=O)NC2CC2(F)F)C1=O` (stereo not drawn) [Compound B292]: the pest or weed control at 250 g/ha in test [1] (setting [5]) was determined as 100%; in test [1] (setting [6]), 90%; in test [2] (setting [7]), 100%; in test [2] (setting [8]), 100%; in test [3] (setting [9]), 100%; in test [3] (setting [10]), 100%. Also, the pest or weed control at 250 g/ha in test [4] (setting [11]) is 90%; in test [4] (setting [12]), 70%.
On to `C/C=C/CNC(=O)CC1CC(=O)C(c2c(C)cc(-c3ncc(F)cc3F)cc2C)C1=O` (stereo not drawn) [Compound B291], for which the pest or weed control at 250 g/ha was 100% in test [1] (setting [5]); 90% in test [1] (setting [6]); 90% in test [2] (setting [7]); 100% in test [2] (setting [8]); 100% in test [3] (setting [9]); 100% in test [3] (setting [10]). Besides, the pest or weed control at 250 g/ha in test [4] (setting [11]) amounted to 90%; in test [4] (setting [12]), 100%.
For the compound `C/C=C/c1cc(C)c(C2C(=O)CC(CC(N)=O)C2=O)c(C)c1` (stereo not drawn) [Compound B175], the pest or weed control at 250 g/ha in test [1] (setting [5]) came out at 100%; in test [1] (setting [6]), 90%; in test [2] (setting [7]), 90%; in test [2] (setting [8]), 100%; in test [3] (setting [9]), 90%; in test [3] (setting [10]), 100%. Further, the pest or weed control at 250 g/ha in test [4] (setting [11]) turned out to be 80%; in test [4] (setting [12]) it was 100%.
For the compound `C/C=C/c1cc(C)c(C2C(=O)CC(CC(N)=O)C2=O)c(CC)c1` (stereo not drawn) [Compound B153], the pest or weed control at 250 g/ha was determined as 100% in test [1] (setting [13]); 70% in test [1] (setting [14]); 100% in test [2] (setting [15]); 90% in test [2] (setting [16]); 100% in test [3] (setting [17]); 90% in test [3] (setting [18]). Besides, the pest or weed control at 250 g/ha stood at 100% in test [4] (setting [19]) and 80% in test [4] (setting [20]).
Turning to `COCCN(CCOC)C(=O)CC1CC(=O)C(c2c(C)cc(-c3ncc(F)cc3F)cc2C)C1=O` (stereo not drawn) [Compound B266], the pest or weed control at 250 g/ha in test [1] (setting [5]) came out at 100%; in test [1] (setting [6]), 40%; in test [2] (setting [7]) it was 100%; in test [2] (setting [8]) it was 100%; in test [3] (setting [9]), 100%; in test [3] (setting [10]), 100%. Moreover, the pest or weed control at 250 g/ha worked out at 80% in test [4] (setting [11]) and 90% in test [4] (setting [12]).
`C/C=C/CNC(=O)CC1CC(=O)C(c2c(C)cc(Br)cc2C)C1=O` (stereo not drawn) [Compound B177]: the pest or weed control at 250 g/ha in test [1] (setting [5]) was 80%; in test [1] (setting [6]) it was 30%; in test [2] (setting [7]) it was 80%; in test [2] (setting [8]) it was 90%; in test [3] (setting [9]), 90%; in test [3] (setting [10]), 90%. For the same compound, the pest or weed control at 250 g/ha in test [4] (setting [11]) came to 80%; in test [4] (setting [12]) it was 90%.
For the compound `C=CC(C)NC(=O)CC1CC(=O)C(c2c(C)cc(-c3ncc(F)cc3F)cc2C)C1=O` (stereo not drawn) [Compound B330], the pest or weed control at 250 g/ha in test [1] (setting [5]), in test [1] (setting [6]), in test [2] (setting [7]), in test [2] (setting [8]), in test [3] (setting [9]) and in test [3] (setting [10]) was 100% throughout. In addition, the pest or weed control at 250 g/ha in test [4] (setting [11]) and in test [4] (setting [12]) was 100% each time.
As to `C=C(C)CNC(=O)CC1CC(=O)C(c2c(C)cc(C)cc2C)C1=O` (stereo not drawn) [Compound B44], the pest or weed control at 250 g/ha in test [1] (setting [13]) came out at 90%; in test [1] (setting [14]) it was 60%; in test [2] (setting [15]) it was 90%; in test [2] (setting [16]) it was 90%; in test [3] (setting [17]) it was 90%; in test [3] (setting [18]) it was 90%. Also, the figures for the pest or weed control at 250 g/ha in test [4] (setting [19]) and in test [4] (setting [20]) were 90% and 100%, respectively.
